Here are results for three compounds from US20230121474A1, “STERILIZATION COMPOSITIONS AND METHODS FOR USING THEREOF” (Save Foods Ltd., priority 2020, published 2023).

The subject of one assay is common fungal pathogen. The experiment in a line: Decay of clementine infested with fungal pathogen after treatment. The assay is classed as in vivo. The conditions noted are these: fruits infested at around 10^5 CFU, cold storage 9 to 21 days then room temperature. How it is done: Additionally, exemplary sanitizing composition (Composition B) was applied on clementine, and the fruit decay was evaluated as compared to only PAA treatment or untreated fruits. The fruits were infested with a common fungal pathogen at a concentration of around 10^5 CFU and inoculated for 16-24 hours before treatment. Following the treatments, the fruits were stored in cold storage for between 9 to 21 days and then stored in room temperature for shelf-life evaluation.

For assay [1], the system named is pre-infected lemons (inoculum of homogenized infected lemons). The experiment in a line: Decay of pre-infected, pricked lemons after sanitizing treatment. The assay is classed as in vivo. The text has this: Inoculum preparation: Infected lemons were identified visually and collected under three different lemon trees on Moshav Beit Yitzhak. Ten of the more infected lemons were put into a food processor, diluted with rainwater and homogenized to uniform, grayish brown, slightly viscous liquid consistency.
They were sent to de-greening from which they were removed on 2nd day. All lemons were pricked in 6 different location on each lemon using a metal nail attached to a rubber stopper which ensured a uniform pricking depth of 1.5 mm on all the lemons. On the same day the liquidized inoculum was prepared as described above and all the lemons were dipped into the “infected” water solution for 30 seconds and allowed to dry at ambient room conditions—temperatures between […].
On the next day the lemons were treated as per description below to screen the various treatment's efficacy in controlling and preventing decay and spoilage of the pre-infected lemons. All treated lemons were divided and placed in separate cartons and allowed to dry. Disease progress of the lemons was monitored for 7 days with no visible disease symptoms. On day 8 after treatment all cartons were covered with plastic sheeting in order to increase ambient humidity to speed up disease development.

A further assay has as its system Listeria. Nature of the assay: In-vitro antimicrobial activity, edible matter contaminated with bacteria dipped into test solution (CFU reduction). To be noted: contact time 60 minutes. The assay is classed as cell-based. On the procedure:
The antimicrobial activity of the composition was tested in-vitro. […] The contact time was 60 minutes. The antimicrobial activity was assessed by calculating bacterial viability (e.g. reduction of the CFU).

The mark [2] stands for this setting: Treatment 3: PAA 50 ppm/PAA 50 ppm, contact time 60 sec.
Setting [3] is: Treatment 4: PAA 50 ppm/PAA 50 ppm, contact time 45 sec.
Setting [4] is: Treatment 5: PAA 30 ppm, contact time 45 sec.
Where [5] appears, read: acid blend 1:1:1 molar ratio with oxidizing agent, potent = at least 10^5-fold reduction of CFUs.

Molecules are shown by their SMILES.

With `CC(=O)OO` [PAA, per-acetic acid], the decay of clementine result in the assay on common fungal pathogen was “about 20%”. For the same compound, in assay [1] (setting [2]), the “% Infected Lemons 15 DAT” value came out at 16.7%, the “% Infected lemons 10 DAT” value stood at 0%, the “Infected Lemons 10 DAT” value stood at 0 and the “Infected Lemons 15 DAT” value came out at 2. In addition, in assay [1] (setting [3]), the “% Infected Lemons 15 DAT” value is recorded as 25%, the “% Infected lemons 10 DAT” value was 20%, the “Infected Lemons 10 DAT” value was 3 and the “Infected Lemons 15 DAT” value was found to be 3. Further, in assay [1] (setting [4]), the “% Infected Lemons 15 DAT” value turned out to be 40%, the “% Infected lemons 10 DAT” value amounted to 40%, the “Infected Lemons 10 DAT” value is 4 and the “Infected Lemons 15 DAT” value was 4.

Turning to `OO` [hydrogen peroxide], the “minimum concentration of hydrogen peroxide within the solution” value in the assay with Listeria (setting [5]) worked out at 200 ppm. For the same compound, in the assay with Listeria (without acid blend), the “antimicrobial activity of the oxidizing agent alone” value is given as “Neither hydrogen peroxide, nor silver/hydrogen peroxide combination showed a significant antimicrobial activity”.

Take `CCC(=O)O` [propionic acid]: the “concentration of propionic acid within the solution sufficient for antibacterial activity” value in the assay on Listeria (setting [5]) is 100 ppm.
